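Step 1: Grow cells in 96-well plates. Step 2: Expose to compound for 48 hours at 5 concentrations. Step 3: Interpolate endpoints linearly; if unreached, use highest concentration. TGI: total growth inhibition.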
Columns and labels:
Assay in all cases: NCI-60 cell line screen, 48 h
[1] = test system: HS 578T breast
[2] = test system: M14 melanoma
[3] = test system: LOX IMVI melanoma
[4] = test system: HCT-15 colon
[5] = test system: COLO 205 colon
[6] = test system: SF-268 CNS
[7] = test system: MOLT-4 leukemia
[8] = test system: OVCAR-4 ovarian
[9] = test system: CAKI-1 renal
[10] = test system: NCI-H460 lung
[11] = test system: IGROV1 ovarian
[12] = test system: A498 renal
[13] = test system: MALME-3M melanoma
[14] = test system: UO-31 renal
[15] = test system: HT29 colon
[16] = test system: HL-60(TB) leukemia
[17] = test system: A549 NSCLC
[18] = test system: OVCAR-8 ovarian
[19] = test system: 786-0 renal
[20] = test system: MDA-MB-231 breast
[21] = test system: KM12 colon
[22] = test system: T-47D breast
[23] = test system: NCI-H23 lung
[24] = test system: SK-MEL-5 melanoma
[25] = test system: RXF 393 renal
[26] = test system: SK-MEL-28 melanoma
[27] = test system: HOP-62 NSCLC
[28] = test system: SF-539 CNS
[29] = test system: SNB-19 CNS
[30] = test system: UACC-62 melanoma
[31] = test system: PC-3 prostate
[32] = test system: SN12C renal
[33] = test system: OVCAR-3 ovarian
[34] = test system: MDA-MB-435
[35] = test system: SW-620 colon
[36] = test system: HOP-92 NSCLC
[37] = test system: SK-MEL-2 melanoma
[38] = test system: SK-OV-3 ovarian
[39] = test system: TK-10 renal
[40] = test system: SNB-75 CNS
[41] = test system: HCC-2998 colon
[42] = test system: MCF7 breast
[43] = test system: OVCAR-5 ovarian
[44] = test system: NCI-H522 lung
[45] = test system: EKVX NSCLC
[46] = test system: UACC-257 melanoma
[47] = test system: BT-549 breast
[48] = test system: ACHN renal
[49] = test system: U251 CNS
[50] = test system: RPMI-8226 leukemia
[51] = test system: K-562 leukemia
[52] = test system: NCI-H226 lung
[53] = test system: DU-145 prostate
[54] = test system: HCT-116 colon
[55] = test system: SF-295 CNS
[56] = test system: NCI/ADR-RES ovarian

Measured: TGI

O=C(O)C(F)(OC(F)(F)C(F)(F)C(F)(F)F)C(F)(F)F (stereo unspecified)
> 100 µM: [1] | [2] | [3] | [4] | [5] | [6] | [7] | [8] | [9] | [10] | [11] | [12] | [13] | [14] | [15] | [16] | [17] | [18] | [19] | [20] | [21] | [22] | [23] | [24] | [25] | [26] | [27] | [28] | [29] | [30] | [31] | [32] | [33] | [34] | [35] | [36] | [37] | [38] | [39] | [40] | [41] | [42] | [43] | [44] | [45] | [46] | [47] | [48] | [49] | [50] | [51] | [52] | [53] | [54] | [55] | [56]

From PubChem BioAssay (NCI)
